Ends that are not written are not given here. Peptide text beside a SMILES is read from it. * marks the point of attachment. X1 = O=C(CCCCCN1C(=O)CC(*)C1=O)NCCCC(O)(P(=O)(O)O)P(=O)(O)O; X2 = O=P(O)(O)SCCNCCCN*
Legend:
[1] = tested on: Hs578T triple-negative breast cancer cells; assay: CCK-8 cellular proliferation assay, co-culture with chemodrugs; format: cell-based; conditions: for cellular proliferation compared to Non-treatment Control: 72 h
Description: In this exemplary representative experiment, a CCK-8 cellular proliferation assay was conducted for Hs578T triple-negative breast cancer cells exposed to the Carboplatin with or without protective agents.
In another exemplary representative chemoprotection experiment, Paclitaxel was used instead of Carboplatin in the CCK-8 cellular proliferation assay for Hs578T cells.

[2] = tested on: A549 non-small cell lung cancer cells; assay: as above; format: cell-based; conditions: for cellular proliferation compared to Non-treatment Control: 72 h
Description: In this exemplary representative experiment, a CCK-8 cellular proliferation assay was conducted for A549 non-small cell lung cancer cells exposed to the Carboplatin with or without protective agents.
In another exemplary representative chemoprotection experiment, Paclitaxel was used instead of Carboplatin in the CCK-8 cellular proliferation assay for A549 cells.

[3] = in vivo; cited from earlier work
[4] = tested on: human bone marrow mononuclear cells; assay: Colony forming unit assay, protection of cells exposed to carboplatin; format: cell-based; conditions: for CFU counts normalized to untreated cells: 50 μM carboplatin for 4 h
Description: In this exemplary representative chemoprotection experiment, a colony forming unit assay was conducted for bone marrow mononuclear cells exposed to carboplatin with or without the pre-treatment with protective agents. In brief, 1.1×10^4 human bone marrow mononuclear cells were suspended in 300 μL culture medium and mixed with 30 μL solutions of PBS (control), Amifostine, WR1065, or Conjugate (with the peptide sequence of CFLG (SEQ ID NO: 18)) at various concentrations. After 2 h of incubation, cells were washed and resuspended in 300 μL culture medium, followed by incubation with 50 μM carboplatin for 4 h. Next, cells were washed and resuspended in the colony forming medium for 14 days. The number of resultant CFU in each group was then determined, and the results were normalized to the group of cells without any treatment. […] In another exemplary representative chemoprotection experiment, Amifostine and Conjugate with the peptide sequence of CFLG (SEQ ID NO: 18) with concentrations ranging from 50 to 1,000 μM were evaluated.

human HSPCs = assay: In vitro radioprotection for human HSPCs (CCK8 viability); conditions: for cellular viability compared to the group receiving no treatment at the same exposure dose: 2-8 Gy; for cellular viability: 50 μM for 4 h
Description: In this exemplary representative experiment, human HSPCs were seeded in a 96-well plate at a density of 2.5×10^4 per well (N=6 for each group). Next, cells were treated with a protective drug conjugate having a peptide sequence of CAPIGIAL (SEQ ID NO: 68) with acetylation at the N-terminus (e.g., AcCAPIGIAL; SEQ ID NO: 80) or amifostine alone at the final concentrations ranging from 0 to 100 μM for 4 h, followed by exposure to y-radiation (Cs-137) at 3 or 8 Gy (0.6 Gy/min). Two hours after the irradiation, the culture medium was replaced by a fresh medium. After 24 h of further incubation, a CCK8 assay was applied to evaluate the cell viability.
In this exemplary representative experiment, human HSPCs were seeded in a 96-well plate at a density of 2.5×10^4 per well (N=6 for each group).

CD2F1 male mice = assay: In vivo radioprotective effects: 30-day survival after Cobalt-60 gamma irradiation; conditions: for survival rate: 12 h before 9.1 Gy
Description: (§1) CD2F1 male mice (N=16) were subcutaneously (sc) injected with a single dose of two different conjugates. For one protective drug conjugate (Conjugate 1), the tested doses were 200, 400, and 800 mg/kg. The structure of Conjugate 1 included amifostine as the protective drug, alendronate as the bone-targeting ligand, and a protease-cleavable peptide having the sequence of CKPLGLWAL (SEQ ID NO: 33) with acetylation at the N-terminus (e.g., AcCKPLGLWAL; SEQ ID NO: 74). […] The irradiated mice were monitored for survival for 30 days post-irradiation. […] For the vehicle control group, the mortalities of mice occurred during 8 to 17 days post-irradiation, and the final survival rate was 6.25% (1 out of 16 survived), indicating significant mortality by gamma-irradiation.
For another protective drug conjugate (Conjugate 2), the tested doses were 250, 500, 600, and 700 mg/kg, and the irradiation was conducted at 24 h post-drug administration. The structure of Conjugate 2 included amifostine as the protective drug, alendronate as the bone-targeting ligand, and a protease-cleavable peptide having the sequence of CPLGLYAL (SEQ ID NO: 29) with acetylation at the N-terminus (e.g., AcCPLGLYAL; SEQ ID NO: 76).
as §1, with “a” for “two different conjugates. For one”, “1), and” for “1),”, “250, 300,” for “200, 400,”, “350” for “800”, “0% (0” for “6.25% (1”
as §1, with “CD2F1 male mice (N=16) were subcutaneously (sc) injected CD2F1” for “CD2F1”, “a” for “two different conjugates. For one”, “1), and” for “1),”, “250, 300,” for “200, 400,”, “350” for “800”
CD2F1 male mice (N=16) were subcutaneously (sc) injected CD2F1 male mice (N=16) were subcutaneously (sc) injected with a single dose of a protective drug conjugate (Conjugate 1), and the tested doses were 50, 100, and 200 mg/kg. The structure of Conjugate 1 included amifostine as the protective drug, alendronate as the bone-targeting ligand, and a protease-cleavable peptide having the sequence of CKPLGLWAL (SEQ ID NO: 33) with acetylation at the N-terminus (e.g., AcCKPLGLWAL; SEQ ID NO: 74). […] The irradiated mice were monitored for survival for […] post-irradiation. […] For the vehicle control group, the mortalities of mice occurred during 8 to 17 days post-irradiation, and the final survival rate was 0% (0 out of 16 survived), indicating significant mortality by gamma-irradiation.
CD2F1 male mice (N=16) were subcutaneously (sc) injected CD2F1 male mice (N=16) were subcutaneously (sc) injected with a single dose of a protective drug conjugate, i.e., Conjugate 3. The tested doses were 250, 300, and 350 mg/kg. […]

[5] = target: matrix metalloproteinase 9 (MMP9) (Homo sapiens, UniProt P14780); assay: In vitro matrix metalloproteinase-based conjugate cleavage; format: biochemical; conditions: isolated enzyme, MMP9, 37° C., up to 20 h, read-out: T1/2 of cleavage (converted)
Description: In this exemplary representative cleavage experiment, a 90 μL stock solution of protective drug conjugate (1 mg/mL) was mixed with 2 μL of matrix metalloproteinase 9 (MMP9) (10 unit/μL) and 8.2 μL of 50 mM CaCl2 solution, followed by incubation at 37° C. for up to 20 h. A 10 μL sample was taken at 0.3, 1, 2, 4, 9, or 20 h for the HPLC analysis. Three conjugates having different peptide sequences (Conjugates 1-3) were used in this test: Conjugate 1-peptide sequence of CPLSLYAL (SEQ ID NO: 65); Conjugate 2-peptide sequence of CPLSLYSL (SEQ ID NO: 66); and Conjugate 3-peptide sequence of CPLGLAL (SEQ ID NO: 67). The concentrations of the conjugate residual in samples were normalized and presented as cleavage ratios.

[6] = Conjugate cleavage in fresh bone marrow aspirate (HPLC); format: in vitro ADME; conditions: human bone marrow aspirate, same donor, 37° C., up to 6 h
Description: The proteolytic cleavage of conjugates determines the therapeutic window, which is controlled by the specific peptide sequence. In a representative cleavage experiment, a […] stock solution of a conjugate (30 mg/mL) was mixed with 90 μL of fresh bone marrow aspirate, followed by incubation at 37° C. for up to 6 h. A 10 μL sample was taken every hour, diluted in 90 μL acetonitrile to precipitate proteins and extract conjugates and cleavage products. The concentrations of the conjugates in samples were determined by HPLC, normalized, and presented as the cleavage ratio.

Chain of matrix metalloproteinase 9 (MMP9) (P14780 94-707, species assumed): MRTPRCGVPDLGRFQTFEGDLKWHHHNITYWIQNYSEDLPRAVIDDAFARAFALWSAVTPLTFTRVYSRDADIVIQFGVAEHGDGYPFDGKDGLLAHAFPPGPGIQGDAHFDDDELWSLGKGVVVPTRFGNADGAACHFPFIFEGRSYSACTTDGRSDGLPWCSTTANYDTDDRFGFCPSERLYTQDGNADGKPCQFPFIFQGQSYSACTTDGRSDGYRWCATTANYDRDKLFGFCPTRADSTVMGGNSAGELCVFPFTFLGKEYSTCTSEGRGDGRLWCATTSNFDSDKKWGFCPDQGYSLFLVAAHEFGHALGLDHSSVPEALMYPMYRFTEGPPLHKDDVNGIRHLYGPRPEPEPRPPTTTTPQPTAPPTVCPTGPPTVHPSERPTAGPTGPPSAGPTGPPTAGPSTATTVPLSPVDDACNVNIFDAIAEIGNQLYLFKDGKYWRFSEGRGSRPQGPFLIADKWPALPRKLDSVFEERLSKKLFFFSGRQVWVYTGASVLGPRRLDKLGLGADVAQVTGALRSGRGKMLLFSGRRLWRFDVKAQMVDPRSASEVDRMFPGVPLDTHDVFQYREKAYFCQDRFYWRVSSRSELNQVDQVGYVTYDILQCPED

NCCCNCCSP(=O)(O)O [Amifostine]
toxicity to Hs578T cells ([1]; 10 to 200 μM): non-toxic
toxicity to A549 cells ([2]; 10 to 200 μM): non-toxic
bone marrow residence time [3]: < 30 min
pharmacokinetic circulating time [3]: < 8 min
mitigation of Carboplatin-caused CFU reduction ([4]; pretreatment 50 to 1,000 μM, dose-dependent (FIG. 8B)): significantly mitigated
cellular viability compared to the group receiving no treatment at the same exposure dose (human HSPCs; 50 μM): much higher cellular viability

N.N.O=C([O-])C1(C(=O)[O-])CCC1.[Pt+2] [Carboplatin]
cellular proliferation compared to Non-treatment Control ([1]; 0.1 mM Carboplatin): ~35%
cellular proliferation compared to Non-treatment Control ([2]; 0.1 mM Carboplatin): ~30%
CFU counts normalized to untreated cells ([4]; no protective agent (FIG. 8A)): ~40%
CFU counts normalized to untreated cells ([4]; no protective agent (FIG. 8B)): ~30%

CC(=O)N[C@@H](CSC1CC(=O)N(CCCCCC(=O)NCCCC(O)(P(=O)(O)O)P(=O)(O)O)C1=O)C(=O)N[C@@H](CCCCN)C(=O)N1CCC[C@H]1C(=O)N[C@@H](CC(C)C)C(=O)NCC(=O)N[C@@H](CC(C)C)C(=O)N[C@@H](Cc1c[nH]c2ccccc12)C(=O)N[C@@H](C)C(=O)N[C@@H](CC(C)C)C(=O)NCCCNCCSP(=O)(O)O (stereo partly shown) [Conjugate 1] (Ac-C(X1)KPLGLWAL-X2)
survival rate (CD2F1 male mice; 50 mg/kg sc): 75%
survival rate (CD2F1 male mice; 100 mg/kg sc): 93.75%
30-day survival rate (CD2F1 male mice; 200 mg/kg sc, 6 h before 9.2 Gy): 68.75%
survival rate (CD2F1 male mice; 200 mg/kg sc): 93.75%
30-day survival rate (CD2F1 male mice; 250 mg/kg sc, 9 h before 9.2 Gy): 75%
30-day survival rate (CD2F1 male mice; 250 mg/kg sc, 12 h before 9.2 Gy): 100%
30-day survival rate (CD2F1 male mice; 300 mg/kg sc, 9 h before 9.2 Gy): 87.25%
30-day survival rate (CD2F1 male mice; 300 mg/kg sc, 12 h before 9.2 Gy): 87.5%
30-day survival rate (CD2F1 male mice; 350 mg/kg sc, 9 h before 9.2 Gy): 56.25%
30-day survival rate (CD2F1 male mice; 350 mg/kg sc, 12 h before 9.2 Gy): 81.25%
30-day survival rate (CD2F1 male mice; 400 mg/kg sc, 6 h before 9.2 Gy): 81.25%
30-day survival rate (CD2F1 male mice; 800 mg/kg sc, 6 h before 9.2 Gy): 68.75%
half-life at 0.898 mg/mL [5]: ~2 h
time to reach 50% conjugate cleavage [6]: 2.4 h

CC(=O)O[C@H]1C(=O)[C@@]2(C)[C@H]([C@H](OC(=O)c3ccccc3)[C@]3(O)C[C@H](OC(=O)[C@H](O)[C@@H](NC(=O)c4ccccc4)c4ccccc4)C(C)=C1C3(C)C)[C@]1(OC(C)=O)CO[C@@H]1C[C@@H]2O [Paclitaxel]
cellular proliferation compared to Non-treatment Control ([1]; 5 nM Paclitaxel): ~35%
cellular proliferation compared to Non-treatment Control ([2]; 5 nM Paclitaxel): ~30%

Conjugate (AcCAPIGIAL): protective drug conjugate having peptide sequence CAPIGIAL with acetylation at the N-terminus (SEQ ID NO: 80) (Ac-CAPIGIAL; also: amifostine conjugate (site not given here))
cellular viability (human HSPCs; then 2 Gy (FIG. 6B)): 91.9%
cellular viability (human HSPCs; then 8 Gy (FIG. 6A)): 61.1%
cellular viability (human HSPCs; then 8 Gy (FIG. 6B)): 59.6%
cellular viability compared to the group receiving no treatment at the same exposure dose (human HSPCs; 50 μM): much higher cellular viability
cellular viability relative to the control group (human HSPCs; 50 μM, 8 Gy): ~2.3 fold
difference in cellular viability between conjugate and amifostine groups (human HSPCs; 50 μM, any exposure dose from 2 Gy to 8 Gy): no statistical difference
concentration of maximum radioprotective efficacy (human HSPCs; 8 Gy, 0-100 μM tested): 50 µM
radioprotective effect (human HSPCs; 50 or 100 μM, 3 Gy): significant radioprotective effect

Source: US20250127799A1, “DRUG CONJUGATES FOR BONE MARROW PROTECTION” (priority 2023, published 2025)
